For one test, the target named is human mPGES-1 (Homo sapiens (Human), UniProt O14684). Kind of test: mPGES-1 inhibitory activity test. To be noted: for inhibition at 0.01 µM: 10 nM test compound; for inhibition at 0.1 µM: 100 nM test compound. It is filed as biochemical. The method in brief: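 PGE2 formation was quantified by HTRF and reported as percent inhibition at 10 and 100 nM compound or as IC50. The 60-second reaction at 4° C used 1 μM PGH2, after a 20-minute 4° C preincubation of compound (1% DMSO final) with glutathione-supplemented (2.5 mM, pH 7.4) microsomes. The microsomes were from transiently transfected CHO-K1 cells expressing human mPGES-1.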
Sequence of human mPGES-1 (O14684 whole entry): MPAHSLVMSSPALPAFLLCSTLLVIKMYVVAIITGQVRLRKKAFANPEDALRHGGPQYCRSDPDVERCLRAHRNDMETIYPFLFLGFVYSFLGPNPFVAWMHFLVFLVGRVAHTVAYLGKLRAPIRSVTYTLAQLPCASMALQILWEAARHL

The subject of another test is human A549 cells. As to the kind of experiment: Inhibition test of PGE2 production using human A549 cells. It is filed as cell-based. To be noted: IL-1β stimulated A549 cells, 24 h, PGE2 by HTRF, read-out: A549 cell inhibition of PGE2 production IC50. In outline:
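A549 cells were preincubated 60 min with compound in RPMI/3% FBS (0.1% DMSO final), then stimulated with IL-1β (5 ng/well) for 24 h at 37°C. PGE2 was measured by HTRF and PGF2a by EIA; activity was normalized to stimulated minus unstimulated controls, and IC50 derived.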
For orientation: In TR-FRET formats the signal depends on donor and acceptor labels being close together.

On to `CCn1ncc2c(NC(=O)c3cc(CNC(=O)C4CCCC4)ccc3Cl)cccc21` [Example 211, 2-Chloro-5-{[(cyclopentylcarbonyl)amino]methyl}-N-(1-ethyl-1H-indazol-4-yl)benzamide], for which, at human mPGES-1, the inhibition – broadly, the change of the read-out against control, counted positive when it falls – at 0.01 µM turned out to be 84%. For the same compound, the 50% inhibitory concentration (IC50) (as a rule, the concentration at which inhibition is half-maximal) in the test with human A549 cells stood at 65.8 nM.
On human mPGES-1, `CCn1ncc2c(NC(=O)c3cc(CNC(=O)C4(C(F)(F)F)CC4)ccc3Cl)cccc21` [Example 212, 2-Chloro-N-(1-ethyl-1H-indazol-4-yl)-5-[({[1-(trifluoromethyl)cyclopropyl]carbonyl}amino)methyl]benzamide] returned an inhibition at 0.01 µM of 71%. Besides, the half-inhibitory concentration (IC50) with human A549 cells amounted to 17.3 nM.
On human mPGES-1, `CCn1ncc2c(NC(=O)c3cc(CNC(=O)C(C)(C)C)ccc3C(F)(F)F)cccc21` [Example 217, 5-{[(2,2-Dimethylpropanoyl)amino]methyl}-N-(1-ethyl-1H-indazol-4-yl)-2-(trifluoromethyl)benzamide] gave an inhibition at 0.01 µM of 79% and an inhibition at 0.1 µM of 80%. In addition, in the test on human A549 cells, the IC50 came out at 14.7 nM.
As to `O=C(Nc1cccc2c1cnn2-c1cccc(C(F)(F)F)c1)c1cc(CNC(=O)C2CCCC2)ccc1Cl` [Example 219, 2-Chloro-5-{[(cyclopentylcarbonyl)amino]methyl}-N-{1-[3-(trifluoromethyl)phenyl]-1H-indazol-4-yl}benzamide], on human mPGES-1, the inhibition at 0.01 µM came to 74% and the inhibition at 0.1 µM is 93%. Moreover, the half-maximal inhibitory concentration (IC50) with human A549 cells came to 1 nM.
In the same order, the values of `O=C(Nc1cccc2c1cnn2-c1cccc(C(F)(F)F)c1)c1cc(CNC(=O)C2(C(F)(F)F)CC2)ccc1Cl` [Example 220, 2-Chloro-5-[({[1-(trifluoromethyl)cyclopropyl]carbonyl}amino)methyl]-N-{1-[3-(trifluoromethyl)phenyl]-1H-indazol-4-yl}benzamide] are 74%, 90% and less than 1 nM.
In the same order, the values of `O=C(Nc1cccc2c1cnn2-c1cccc(C(F)(F)F)c1)c1cc(CNC(=O)C2(O)CC2)ccc1Cl` [Example 221, 2-Chloro-5-({[(1-hydroxycyclopropyl)carbonyl]amino}methyl)-N-{1-[3-(trifluoromethyl)phenyl]-1H-indazol-4-yl}benzamide] are 65%, 100% and 2.6 nM.
As to `COCC(=O)NCc1ccc(Cl)c(C(=O)Nc2cccc3c2cnn3-c2cccc(C(F)(F)F)c2)c1` [Example 222, 2-Chloro-5-{[(methoxyacetyl)amino]methyl}-N-{1-[3-(trifluoromethyl)phenyl]-1H-indazol-4-yl}benzamide], the inhibition at 0.01 µM against human mPGES-1 came to 61%. Besides, in the test on human A549 cells, the concentration for half-maximal inhibition (IC50) was found to be 3.3 nM.
The like results for `CC(C)(CO)C(=O)NCc1ccc(Cl)c(C(=O)Nc2cccc3c2cnn3-c2cccc(C(F)(F)F)c2)c1` [Example 223, 2-Chloro-5-{[(3-hydroxy-2,2-dimethylpropanoyl)amino]methyl}-N-{1-[3-(trifluoromethyl)phenyl]-1H-indazol-4-yl}benzamide] were, in that order, 78% and 0.6 nM.
The like results for `O=C(Nc1cccc2c1cnn2-c1cccc(C(F)(F)F)c1)c1cc(CNS(=O)(=O)C2CC2)ccc1Cl` [Example 224, 2-Chloro-5-{[(cyclopropylsulfonyl)amino]methyl}-N-{1-[3-(trifluoromethyl)phenyl]-1H-indazol-4-yl}benzamide] were, in that order, 83% and less than 1 nM.
In the same order, the values of `O=C(Nc1cccc2c1cnn2-c1nccs1)c1cc(CNC(=O)C2CCCC2)ccc1Cl` [Example 227, 2-Chloro-5-{[(cyclopentylcarbonyl)amino]methyl}-N-[1-(1,3-thiazol-2-yl)-1H-indazol-4-yl]benzamide] are 81% and 10 nM.

For the origin of these results see patent US20250059172A1, “INDAZOLE COMPOUND AND PHARMACEUTICAL” (NIPPON SHINYAKU CO., LTD., priority 2021, published 2025).
